# Laboratory results as given in US7737167B2, “2-amino benzimidazole derivatives and their use as modulators of small-conductance calcium-activated potassium channels” (Neurosearch A/S, priority 2004, dated 2010).
# Counter-ions that a name gives are not always drawn.
row,melting point,SMILES
1,276 °C,"CC1CCC(Nc2nc3ccccc3[nH]2)c2ccccc21 (stereo not shown) (as salt: HCl) [Example 20, N-(Benzimidazol-2-yl)-4-methyl-1,2,3,4-tetrahydro-1-naphthylamine]"
2,203 to 205 °C,"c1ccc2c(c1)CCCCC2Nc1nc2ccccc2[nH]1 (stereo not shown) [Example 15, N-(Benzimidazol-2-yl)-6,7,8,9-tetrahydro-5H-benzocyclohepten-5-ylamine]"
3,256 to 257 °C,"CC1CCc2ccccc2C1Nc1nc2ccccc2[nH]1 (stereo not shown) [Example 18, N-(Benzimidazol-2-yl)-2-methyl-1,2,3,4-tetrahydro-1-naphthylamine]"
4,250 to 252 °C,"Cc1cc(C)c2c(c1)C(Nc1nc3ccccc3[nH]1)CCC2 (stereo not shown) [Example 19, N-(Benzimidazol-2-yl)-5,7-dimethyl-1,2,3,4-tetrahydro-1-naphthylamine]"
5,121 to 124 °C,"Cc1cc2nc(N[C@@H]3CCCc4ccccc43)[nH]c2cc1C [Example 23, (R)-N-(5,6-Dimethylbenzimidazol-2-yl)-1,2,3,4-tetrahydro-1-naphthylamine]"
6,220 to 221 °C,"Fc1ccc2nc(NC3CCCc4ccccc43)[nH]c2c1 (stereo not shown) [Example 24, N-(5-Fluorobenzimidazol-2-yl)-1,2,3,4-tetrahydro-1-naphthylamine]"
7,181 °C,"Fc1ccc2c(c1)C(Nc1nc3ccccc3[nH]1)CCC2 (stereo not shown) [Example 26, N-(Benzimidazol-2-yl)-7-fluoro-1,2,3,4-tetrahydro-1-naphthylamine]"

# Further lines, the compound ahead of its results:
row,SMILES,melting point
1,"c1ccc(C(CNc2nc3ccccc3[nH]2)c2ccccc2)cc1 (as salt: HCl) [Example 1, N-(Benzimidazol-2-yl)-2,2-diphenylethylamine]",153.5 to 154.5 °C
2,"c1ccc(C(CCNc2nc3ccccc3[nH]2)c2ccccc2)cc1 (as salt: HCl) [Example 4, N-(Benzimidazol-2-yl)-3,3-diphenylpropylamine]",136.5 to 137.5 °C
3,"Fc1ccc(C(CNc2nc3ccccc3[nH]2)c2ccc(F)cc2)cc1 [Example 2, N-(Benzimidazol-2-yl)-2,2-bis(4-fluorophenyl)ethylamine]",155 to 157 °C
4,"Clc1ccc(C(CNc2nc3ccccc3[nH]2)c2ccc(Cl)cc2)cc1 [Example 3, N-(Benzimidazol-2-yl)-2,2-bis(4-chlorophenyl)ethylamine]",189 to 190 °C
5,"c1ccc2c(c1)CC(Nc1nc3ccccc3[nH]1)C2 [Example 6, N-(Benzimidazol-2-yl)-2-indanylamine]",246 to 249 °C
6,"Fc1ccc2c(c1)CCC2Nc1nc2ccccc2[nH]1 (stereo not shown) [Example 7, N-(Benzimidazol-2-yl)-5-fluoro-1-indanylamine]",207 to 208 °C
7,"Clc1ccc2c(c1)CCC2Nc1nc2ccccc2[nH]1 (stereo not shown) [Example 8, N-(Benzimidazol-2-yl)-5-chloro-1-indanylamine]",242 to 243 °C
8,"Brc1ccc2c(c1)CCC2Nc1nc2ccccc2[nH]1 (stereo not shown) [Example 9, N-(Benzimidazol-2-yl)-5-bromo-1-indanylamine]",242 to 243 °C
9,"c1ccc(C(Nc2nc3ccccc3[nH]2)c2ccccc2)cc1 [Example 11, N-(Benzimidazol-2-yl)benzhydrylamine]",255 to 258 °C
10,"Clc1ccc(C(Nc2nc3ccccc3[nH]2)c2ccccc2)cc1 (stereo not shown) [Example 12, N-(Benzimidazol-2-yl)-4-chlorobenzhydrylamine]",180 to 184 °C
11,"Clc1ccc(C(Nc2nc3ccccc3[nH]2)c2ccc(Cl)cc2)cc1 [Example 13, N-(Benzimidazol-2-yl)-4,4′-dichlorobenzhydrylamine]",176 to 180 °C
12,"Fc1ccc(C(Nc2nc3ccccc3[nH]2)c2ccc(F)cc2)cc1 [Example 14, N-(Benzimidazol-2-yl)-4,4′-difluorobenzhydrylamine]",241 to 243 °C
